Assay results: the supplement of paper PMC5908809

How the values were obtained:
[1] = system: normal NK cells expanded with K562-aAPC; assay: percent inhibition of viability; higher = more inhibition; conditions: 72 h, IL-2 2.5 ng/mL
Method: (§1)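 Drug sensitivity and resistance testing on K562-aAPC-expanded normal NK cells: 5 concentrations (10-fold steps over a 10,000-fold range), 72 h at 37 °C, viability by CellTiter-Glo normalised to DMSO and benzethonium chloride controls; DSS from the fitted curve.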

[2] = system: DERL-7 (IL-2 2.5 ng/mL); assay: as above; conditions: 72 h
[3] = system: IMC-1 (IL-2 20 ng/mL); assay: as above; conditions: 72 h
[4] = system: KAI3 (IL-2 2.5 ng/mL); assay: as above; conditions: 72 h
[5] = system: KHYG-1 (IL-2 2.5 ng/mL); assay: as above; conditions: 72 h
[6] = system: NK-92 (IL-2 2.5 ng/mL); assay: as above; conditions: 72 h
[7] = system: NK-YS (IL-2 2.5 ng/mL); assay: as above; conditions: 72 h
[8] = system: NKL (IL-2 2.5 ng/mL); assay: as above; conditions: 72 h
[9] = system: SNK-6 (IL-2 2.5 ng/mL); assay: as above; conditions: 72 h
[10] = system: YT (IL-2 2.5 ng/mL); assay: as above; conditions: 72 h
[11] = system: normal primary NK cells, pool 1 (3 donors) (IL-2 2.5 ng/mL); assay: as above; conditions: 72 h
[12] = system: normal primary NK cells, pool 1 (3 donors), resting (IL-2 0 ng/mL); assay: as above; conditions: 72 h
[13] = system: normal primary NK cells, pool 2 (3 donors) (IL-2 2.5 ng/mL); assay: as above; conditions: 72 h
[14] = system: normal primary NK cells, pool 3 (3 donors) (IL-2 2.5 ng/mL); assay: as above; conditions: 72 h
[15] = system: normal NK cells expanded with K562-aAPC; assay: drug sensitivity score (DSS) (DSS units); higher = more sensitive; extreme values may be limits of the assay; conditions: 72 h; IL-2 2.5 ng/mL
Method: as §1

[16] = system: DERL-7 (IL-2 2.5 ng/mL); assay: as above; conditions: 72 h
[17] = system: IMC-1 (IL-2 20 ng/mL); assay: as above; conditions: 72 h
[18] = system: KAI3 (IL-2 2.5 ng/mL); assay: as above; conditions: 72 h
[19] = system: KHYG-1 (IL-2 2.5 ng/mL); assay: as above; conditions: 72 h
[20] = system: NK-92 (IL-2 2.5 ng/mL); assay: as above; conditions: 72 h
[21] = system: NK-YS (IL-2 2.5 ng/mL); assay: as above; conditions: 72 h
[22] = system: NKL (IL-2 2.5 ng/mL); assay: as above; conditions: 72 h
[23] = system: SNK-6 (IL-2 2.5 ng/mL); assay: as above; conditions: 72 h
[24] = system: YT (IL-2 2.5 ng/mL); assay: as above; conditions: 72 h
[25] = system: normal primary NK cells, pool 1 (3 donors) (IL-2 2.5 ng/mL); assay: as above; conditions: 72 h
[26] = system: normal primary NK cells, pool 1 (3 donors), resting (IL-2 0 ng/mL); assay: as above; conditions: 72 h
[27] = system: normal primary NK cells, pool 2 (3 donors) (IL-2 2.5 ng/mL); assay: as above; conditions: 72 h
[28] = system: normal primary NK cells, pool 3 (3 donors) (IL-2 2.5 ng/mL); assay: as above; conditions: 72 h

OC[C@H]1O[C@@H](n2cnc3c2N=CNC[C@H]3O)C[C@@H]1O [Pentostatin] (max concentration tested 10000 nM)
percent inhibition of viability [%]
Conditions	1 nM	10 nM	100 nM	1000 nM	10000 nM
[1]	0.75	-2.98	3.38	6.95	8.99
[2]	-9.03	2.32	-10.5	-5.23	-4.31
[3]	0.7	-6.1	1.22	0.79	10.6
[4]	-10.6	-16.4	-2.67	-7.59	-0.36
[5]	-3.74	-3.32	0.86	5.07	5.26
[6]	-4	-10.1	-2.52	-6.44	6.47
[7]	-2.76	-5.13	-3.05	6.9	9.33
[8]	-20.9	-21.1	-17.4	-6.93	-7.04
[9]	4.13	3.89	8.33	34	20.9
[10]	-4.24	-0.68	3.36	4.3	8.72
[11]	-3.11	3.31	-8.32	-5.87	1.1
[12]	-7.98	1.6	-13.1	-28.3	-7.61
[13]	-9.21	-12.2	-5.88	-13.3	1.05
[14]	-11.3	-12.5	-7.39	-4.5	11.5

Conditions	drug sensitivity score
[15]	0
[16]	0
[17]	0
[18]	0
[19]	0
[20]	0
[21]	0
[22]	0
[23]	7.04
[24]	0
[25]	0
[26]	0
[27]	0
[28]	0
